The conditions of data set [1]: for Percent of Initial NaClO2 Remaining 2 Hours after Mixing / Percent of Initial NaClO2 Remaining 5 Hours after Mixing: buffer.
Data set [2] can be described thus: Colorant effect on chlorite consumption (Example 2). The format is physicochemical. Particulars: disinfecting composition A of Example 1 with essentially equimolar colorant: 0.41% Blue #1, 0.26% Blue #2, 0.30% Yellow #5, 0.25% Yellow #6, 0.28% Red #40. The procedure: To determine how increasing levels of colorant causes a more rapid consumption of chlorite, the disinfecting composition A of Example 1 was prepared with either 0% (control), 0.03%, 0.15%, 0.30% or 0.60% by weight FD&C Yellow #5.
This experiment was then repeated using essentially equimolar concentrations of the following FD&C colorants: 0.41% Blue #1, 0.26% Blue #2, 0.30% Yellow #5, 0.25% Yellow #6, 0.28% Red #40 and no colorant (control).

The nature of data set [3]: Assay for measuring the Reduced Chlorite Demand Factor (Example 9). The format is physicochemical. Particulars: pH 2.5.
The conditions of data set [4]: buffer, pH 2.5.
Data set [5] in a line: Chlorine dioxide generation by UV/Visible spectrophotometry at 360 nm (Example 6). To be noted: pH 2.5, no colorant. The format is physicochemical.
The nature of data set [6]: Effect of nitrogenous stabilizer on chlorite consumption in a nil colorant composition (Example 7). The format is physicochemical.
[7] abbreviates: composition with FD&C Yellow #5, pH 2.5, versus control.
The mark [8] stands for this setting: stabilizer at 1.33 M, five hours after mixing, versus control without stabilizer.
The mark [9] stands for this setting: level (Wt %): ethylenediamine 1.0, monoethanolamine 2.0, glycine 2.5.

Like-named read-outs stand apart in the source and are kept apart here.

On to `NCS(=O)(=O)O` [Aminomethanesulfonic Acid], for which the “effect on rate of sodium chlorite consumption / chlorite longevity (in words)” value in data set [1] (setting [7]) was “solid chlorite longevity benefits”.

Take `COc1cc(S(=O)(=O)[O-])c(C)cc1N=Nc1c(O)ccc2cc(S(=O)(=O)[O-])ccc12.[Na+].[Na+]` [FD&C Red #40]: in data set [2], the “Percent of Initial NaClO2 Remaining 5 Hours after Mixing” value turned out to be 60%.

For the compound `NC(N)=O` [Urea], in data set [3] (setting [8]), the “Reduced Chlorite Demand Factor” value was 4.3. In data set [1] (setting [7]), the “effect on rate of sodium chlorite consumption / chlorite longevity (in words)” value is recorded as “provides longevity benefits”.

For `O=S(=O)([O-])c1ccc(N=Nc2c(O)ccc3cc(S(=O)(=O)[O-])ccc23)cc1.[Na+].[Na+]` [FD&C Yellow #6], the “Percent of Initial NaClO2 Remaining 5 Hours after Mixing” value in data set [2] is recorded as 18%.

`CNS(=O)(=O)O` [Methylsulfamic Acid]: the “effect on rate of sodium chlorite consumption / chlorite longevity (in words)” value in data set [1] (setting [7]) is listed as “particularly effective”.

For `O=C([O-])C1=NN(c2ccc(S(=O)(=O)[O-])cc2)C(=O)C1N=Nc1ccc(S(=O)(=O)[O-])cc1.[Na+].[Na+].[Na+]` (stereo not shown) [FD&C Yellow #5], the “Percent of Initial NaClO2 Remaining 5 Hours after Mixing” value in data set [2] is recorded as 27%.

For the compound `NCC(=O)O` [Glycine], the “Percent of Initial Colorant Remaining 2 Hours after Mixing” value in data set [4] turned out to be 61%. For the same compound, the “Reduced Chlorite Demand Factor” value in data set [3] (setting [8]) is recorded as 3.8. Further, in data set [5] (setting [9]), the “Level of ClO2 after 1 hour” value was found to be 105 ppm. In addition, in data set [1] (pH 2.5), the “Percent of Initial NaClO2 Remaining 2 Hours after Mixing” value was found to be 78% and the “Percent of Initial NaClO2 Remaining 5 Hours after Mixing” value is recorded as 42%.

Regarding `O=C1/C(=C2\Nc3ccc(S(=O)(=O)[O-])cc3C2=O)Nc2ccc(S(=O)(=O)[O-])cc21.[Na+].[Na+]` [FD&C Blue #2], the “Percent of Initial NaClO2 Remaining 5 Hours after Mixing” value in data set [2] amounted to 43%.

Consider `NCCO` [Monoethanolamine], for which the “Percent of Initial Colorant Remaining 2 Hours after Mixing” value in data set [4] was found to be 49%. In data set [3] (setting [8]), the “Reduced Chlorite Demand Factor” value came out at 4.1. The “Level of ClO2 after 1 hour” value in data set [5] (setting [9]) turned out to be 66 ppm. Moreover, in data set [1] (pH 2.5), the “Percent of Initial NaClO2 Remaining 2 Hours after Mixing” value is given as 86% and the “Percent of Initial NaClO2 Remaining 5 Hours after Mixing” value is 45%.

For Aniline Sulfonic Acid, in data set [1] (pH 2.5), the “Percent of Initial NaClO2 After 2 Hours” value was determined as 90%, the “Percent of Initial NaClO2 After 5 hours” value was 75% and the “effect on rate of sodium chlorite consumption / chlorite longevity (in words)” value is “promote greater chlorite longevity”.

Turning to `NCCS(=O)(=O)O` [Taurine], the “effect on rate of sodium chlorite consumption / chlorite longevity (in words)” value in data set [1] (setting [7]) is reported as “solid chlorite longevity benefits”.

For the compound `Nc1ccc(S(N)(=O)=O)cc1` [Sulfanilamide], the “Reduced Chlorite Demand Factor” value in data set [3] (tested at 0.5% due to lower solubility, five hours after mixing) stood at 5.6. The “effect on rate of sodium chlorite consumption / chlorite longevity (in words)” value in data set [1] (setting [7]) is “promote greater chlorite longevity”.

As to `NCCN` [Ethylenediamine], the “Percent of Initial Colorant Remaining 2 Hours after Mixing” value in data set [4] was 91%. In data set [3] (setting [8]), the “Reduced Chlorite Demand Factor” value was 4.0. The “Level of ClO2 after 1 hour” value in data set [5] (setting [9]) was determined as 35 ppm. Further, in data set [1] (pH 2.5), the “Percent of Initial NaClO2 Remaining 2 Hours after Mixing” value was 92% and the “Percent of Initial NaClO2 Remaining 5 Hours after Mixing” value was 80%.

`CCN(Cc1cccc(S(=O)(=O)[O-])c1)c1ccc(C(=C2C=CC(=[N+](CC)Cc3cccc(S(=O)(=O)[O-])c3)C=C2)c2ccccc2S(=O)(=O)[O-])cc1.[Na+].[Na+]` [FD&C Blue #1]: the “Percent of Initial NaClO2 Remaining 5 Hours after Mixing” value in data set [2] is below 2%.

In the case of `NS(=O)(=O)O` [Sulfamic Acid], the “Percent of Initial Colorant Remaining 2 Hours after Mixing” value in data set [4] was determined as 97%. Further, the “Reduced Chlorite Demand Factor” value in data set [3] amounted to 4.5. The “Level of ClO2 after 1 hour” value in data set [5] (stabilizer level 0.25 Wt %) was 17 ppm. In addition, the “Level of ClO2 after 1 hour” value in data set [5] (stabilizer level 0.50 Wt %) worked out at 17 ppm. Moreover, in data set [1] (pH 2.5), the “Percent of Initial NaClO2 Remaining 2 Hours after Mixing” value is recorded as 98%, the “Percent of Initial NaClO2 Remaining 5 Hours after Mixing” value was 95% and the “effect on rate of sodium chlorite consumption / chlorite longevity (in words)” value is “significantly impact the rate of sodium chlorite consumption”. Moreover, in data set [6] (stabilizer level 0.25 Wt %), the “Percent of Initial NaClO2 After 2 Hours” value came out at 97% and the “Percent of Initial NaClO2 After 5 hours” value is 94%. Besides, in data set [6] (stabilizer level 0.50 Wt %), the “Percent of Initial NaClO2 After 2 Hours” value was 97% and the “Percent of Initial NaClO2 After 5 hours” value is listed as 94%.

For the compound `OCCNCCO` [Diethanolamine], the “Reduced Chlorite Demand Factor” value in data set [3] (setting [8]) worked out at 0.9.

In the case of `Nc1ccccc1` [Aniline], the “effect on rate of sodium chlorite consumption / chlorite longevity (in words)” value in data set [1] (setting [7]) is “promote greater chlorite longevity”.

For the origin of these results see patent US8388990B2, “Acidified chlorite compositions containing nitrogenous stabilizers and systems and methods related thereto” (Ecolab USA Inc., priority 2002, dated 2013).
